Laboratory results from patent US20230096766A1, “AMINO ACID HAVING FUNCTIONAL GROUP CAPABLE OF INTERMOLECULAR HYDROGEN BONDING, PEPTIDE COMPOUND CONTAINING SAME AND METHOD FOR PRODUCTION THEREOF” (Chugai Seiyaku Kabushiki Kaisha, priority 2018, published 2023).
*1 amine or outer side, *2 acyl side, *3 side chain or, on linkers, in order; H or OH if unused. Where a SMILES comes first, the peptide text is derived from it. Bridges are numbered along the chain shown (N, C = ends). [ ]: non-standard residue; d: D form. The star is where a group is joined. NMeHph(3-OMe-4-CONHMe) = CNC(=O)c1ccc(CC[C@H](NC)C(=O)O)cc1OC; hPhe(3-OMe,4-CONHMe) = CNC(=O)c1ccc(CC[C@H](N)C(=O)O)cc1OC; NMePhe(3-Cl) = CN[C@@H](Cc1cccc(Cl)c1)C(=O)O; NMehPhe = CN[C@@H](CCc1ccccc1)C(=O)O; X6 = O=C([C@H](CCCCO)N[*:1])[*:2]; NMeF = CN[C@@H](Cc1ccccc1)C(=O)O; NMeGABA = CN(CCCC(=O)[*:2])[*:1]; CH2CH(OH)CF3 = OC(C*)C(F)(F)F; NMeL = CN[C@@H](CC(C)C)C(=O)O; Piperidide = C1CCN(*)CC1; dAbu = CC[C@@H](N)C(=O)O; Isopentyl = CC(C)CC*; NPrGly = CCCNCC(=O)O; Ethyl(2-OH) = OCC*; X3 = C[C@H](O)C*; Sar = CNCC(=O)O; tBu = CC(C)(C)*

Assay: in vitro
Settings: human

Compound `CCCN1CC(=O)N(C)[C@@H](CC(C)C)C(=O)N[C@@H](COCCC(C)C)C(=O)N(C)[C@@H](Cc2ccccc2)C(=O)N(C)[C@@H](CC(C)C)C(=O)N[C@H](C(=O)N2CCCCC2)CC(=O)N[C@H](C(C)C)C(=O)N(C)[C@@H](Cc2ccccc2)C(=O)N[C@@H](COC[C@H](C)O)C(=O)N(C)[C@@H](CC(C)C)C(=O)N[C@@H]([C@@H](C)O)C1=O` [AP61] ([dV][NMeF]S(X3)[NMeL]T[NPrGly][NMeL]S(Isopentyl)[NMeF][NMeL]D-Piperidide; lactam N-11) has a Papp (Caco-2, Caco-2 (cm/sec)) of 0.51 ×10⁻⁶ cm/s.
Work on `CC[C@H](C)[C@@H]1NC(=O)[C@H](CC(C)C)N(C)C(=O)CCCN(C)C(=O)C[C@@H](C(=O)N2CCCCC2)NC(=O)[C@H](CC(C)C)N(C)C(=O)[C@H](CCc2ccc(C(=O)NC)c(OC)c2)N(C)C(=O)[C@H]([C@@H](C)O)NC(=O)[C@H](CC(C)C)N(C)C(=O)[C@H](COC(C)(C)C)NC(=O)[C@H](CC(C)C)N(C)C(=O)[C@H](Cc2ccccc2)N(C)C1=O` [AP228] ([NMeGABA][NMeL]I[NMeF][NMeL]S(tBu)[NMeL]T[NMeHph(3-OMe-4-CONHMe)][NMeL]D-Piperidide; lactam N-11) yielded a Papp (Caco-2, Caco-2 (cm/sec)) of 0.84 ×10⁻⁶ cm/s.
In the case of `CCCN1CC(=O)N(C)[C@@H](CC(C)C)C(=O)N[C@@H](COCCC(C)C)C(=O)N(C)[C@@H](Cc2ccccc2)C(=O)N(C)[C@@H](CC(C)C)C(=O)N[C@H](C(=O)N2CCCCC2)CC(=O)N[C@H](CC)C(=O)N(C)[C@@H](CCc2ccccc2)C(=O)N[C@@H](CCCCO)C(=O)N(C)[C@@H](CC(C)C)C(=O)N[C@@H]([C@@H](C)O)C1=O` [Compound B01] ([dAbu][NMehPhe][X6][NMeL]T[NPrGly][NMeL]S(Isopentyl)[NMeF][NMeL]D-Piperidide; lactam N-11), the Papp (Caco-2, Caco-2 (cm/sec)) is reported as < 0.11 ×10⁻⁶ cm/s.
With `CC[C@H](C)[C@@H]1NC(=O)[C@H](CC(C)C)NC(=O)[C@H](CC(C)C)N(C)C(=O)[C@H](CC(C)C)NC(=O)C[C@@H](C(=O)N2CCCCC2)NC(=O)[C@H](CC(C)C)N(C)C(=O)[C@H]([C@@H](C)O)NC(=O)[C@H](CCc2ccc(C(=O)NC)c(OC)c2)NC(=O)[C@H](CC(C)C)N(C)C1=O` [AP263] (L[NMeL]LI[NMeL][hPhe(3-OMe,4-CONHMe)]T[NMeL]D-Piperidide; lactam N-9) the Papp (Caco-2, Caco-2 (cm/sec)) was 1.8 ×10⁻⁶ cm/s.
`CC[C@H](C)[C@@H]1NC(=O)[C@H](CC(C)C)N(C)C(=O)CCCN(C)C(=O)C[C@@H](C(=O)N2CCCCC2)NC(=O)[C@H](CC(C)C)N(C)C(=O)[C@H](CC(C)C)N(C)C(=O)[C@H]([C@@H](C)O)NC(=O)[C@H](CC(C)C)N(C)C(=O)[C@H](Cc2ccc(O)cc2)NC(=O)[C@H](CC(C)C)N(C)C(=O)[C@H](Cc2ccccc2)N(C)C1=O` [Compound F03] ([NMeGABA][NMeL]I[NMeF][NMeL]Y[NMeL]T[NMeL][NMeL]D-Piperidide; lactam N-11) gave a Papp (Caco-2, Caco-2 (cm/sec)) of 0.13 ×10⁻⁶ cm/s.
Compound `CC[C@H](C)[C@@H]1NC(=O)[C@H](CC(C)C)N(C)C(=O)CCCN(C)C(=O)C[C@@H](C(=O)N2CCCCC2)NC(=O)[C@H](CC(C)C)N(C)C(=O)[C@H](CC(C)C)N(C)C(=O)[C@H]([C@@H](C)O)NC(=O)[C@H](CC(C)C)N(C)C(=O)[C@H](COCC(O)C(F)(F)F)NC(=O)[C@H](Cc2ccccc2)N(C)C(=O)[C@H](Cc2ccccc2)N(C)C1=O` (stereo partly drawn) [Compound C03] ([NMeGABA][NMeL]I[NMeF][NMeF]S(CH2CH(OH)CF3)[NMeL]T[NMeL][NMeL]D-Piperidide; lactam N-11) has a Papp (Caco-2, Caco-2 (membrane permeability)) of 0.5 ×10⁻⁶ cm/s.
Work on `CCCN1CC(=O)N(C)[C@@H](Cc2cccc(Cl)c2)C(=O)N(C)[C@@H](CC(C)C)C(=O)N[C@@H](COCCO)C(=O)N(C)[C@@H](CC(C)C)C(=O)N[C@H](C(=O)N2CCCCC2)CC(=O)N(C)CC(=O)N(C)[C@@H](CCc2ccccc2)C(=O)N[C@@H]([C@@H](C)CC)C(=O)N(C)[C@@H](CC(C)C)C(=O)N[C@@H]([C@@H](C)O)C1=O` [Compound A08] ([Sar][NMehPhe]I[NMeL]T[NPrGly][NMePhe(3-Cl)][NMeL]S(Ethyl(2-OH))[NMeL]D-Piperidide; lactam N-11) yielded a Papp (Caco-2, Caco-2 (cm/sec)) of 0.32 ×10⁻⁶ cm/s.
